Non-standard residues stand in square brackets, D forms with d. No end group written: not given here. Phe(4-NH2) = Nc1ccc(C[C@H](N)C(=O)O)cc1
Key:
[1] = test system: Rat Peritoneal Macrophages; assay: Phagocytosis of opsonized yeast by rat peritoneal macrophages; format: cell-based, Sprague Dawley rats
Procedure: Resident peritoneal macrophages have very little phagocytic activity. Exposure of macrophages to inflammatory or activating agents will increase this macrophage function. Resident peritoneal macrophages were harvested from C57B1/6 mice or Sprague Dawley rats and resuspended at a concentration of 1×10^6 cells/ml in phosphate buffered saline (PBS). Five separate 0.5 ml cell aliquots were placed on a glass coverslip in a 35 mm petri dish. Prior to incubation, either 0.5 ml of PBS, AII, or AII analogues or fragments at between 1-1000 ug/ml final concentration was added to the individual cover slips. The dishes containing the cover slips were then incubated at 37° C. for 4 hours, after which the cover slips were washed 3 to 6 times with PBS. Opsonized yeast particles (Sigma Chemical Co.) (yeast opsonized with adult serum from the same species as that under study) were added to the cover slips and incubated for 2 hours, after which the cover slips were again washed with PBS and inverted onto a glass slide. The number of macrophages that ingested yeast and the number of yeast per macrophage ingested was then determined microscopically. At least 100 macrophages per coverslip were counted. The data from this study are summarized in Tables 3 and 4 and FIGS. 1 and 2.

[2] = test system: human peripheral blood mononuclear cells (PBMC); assay: Respiratory burst (hydrogen peroxide generation), human PBMC; format: cell-based; conditions: alone and in response to PMA 10 ng/ml; 4 hours exposure
Procedure: The respiratory burst of leukocytes (macrophages and polymorphonuclear neutrophils) is one component of the mediator system used to kill bacteria. As with phagocytosis, the level of this respiratory burst activity in resident macrophages is low. […] Studies were conducted to assess the effect of in vitro exposure of murine or rat peritoneal macrophages and human peripheral blood mononuclear cells (PBMC) to various concentrations of AII on the capacity to generate hydrogen peroxide via the respiratory burst system. For the human studies, five different donors were examined.
The murine or rat peritoneal cells were harvested by lavage with 5-15 ml of cold PBS with 0.5% bovine serum albumin. The human PBMC were harvested by venipuncture from normal human volunteers and isolated from peripheral blood by Ficoll Hypaque density centrifugation. After isolation, the cells were resuspended at 1×10^6 cells/ml and placed at 100 μl per well into 96 well plates. The cells were incubated with various concentrations of AII or AII analogues for 4 hours at 37° C. The cells were then preloaded with a fluorescent probe for hydrogen peroxide, 2,7 dichlorofluorescein acetate, which is nonfluorescent in the absence of hydrogen peroxide. Fifteen minutes later, 10 ng/ml of phorbol myristate acetate (+PMA) or PBS (−PMA) was added to stimulate the production of hydrogen peroxide. One hour after stimulation the level of fluorescence produced was measured on a Cytofluor 2350 multiwell fluorometer.

[3] = Test of AII fragments for effectiveness (method not described)
AT2 receptor = conditions: experimental models tested; cited from earlier work

Row | Substance | #/Cell ([1]; peptide 100 μg/ml) | % w/Yeast ([1]; peptide 100 μg/ml) [%] | Number of Macrophages with Yeast (Yeast Number) 0 ([1]; peptide 100 μg/ml) | Number of Macrophages with Yeast (Yeast Number) 1-3 ([1]; peptide 100 μg/ml) | Number of Macrophages with Yeast (Yeast Number) 4-6 ([1]; peptide 100 μg/ml) | #/Cell ([1]; peptide 1000 μg/ml) | % w/Yeast ([1]; peptide 1000 μg/ml) [%] | Number of Macrophages with Yeast (Yeast Number) 1-3 ([1]; peptide 1000 μg/ml) | Number of Macrophages with Yeast (Yeast Number) 4-6 ([1]; peptide 1000 μg/ml) | ability to generate hydrogen peroxide (respiratory burst) [2] | effectiveness [3] | binding characteristics (AT2 receptor)
1 | DRPYIHPF [GSD 24B] | 0.58 | 23.1 | 100 | 25 | 5 | 0.18 | 9.1 | 10 | 0 | an increase in the respiratory burst capacity was observed |  | 
2 | RVYAHPF [GSD 22A] | 0.59 | 23.7 | 100 | 26 | 5 | 0.40 | 18.7 | 22 | 1 | an increase in the respiratory burst capacity was observed |  | 
3 | Tyr-Ile-His-Pro-Phe (YIHPF; printed: Tyr-Ile-His-Pro-Phe) [AII(4-8)] |  |  |  |  |  |  |  |  |  |  | found not to be effective | 
4 | DRVYIHPI [GSD 28] | 0.02 | 1.0 | 100 | 1 | 0 |  |  |  |  | an increase in the respiratory burst capacity was observed |  | 
5 | His-Pro-Phe (HPF) [AII(6-8)] |  |  |  |  |  |  |  |  |  |  | found not to be effective | 
6 | Asp-Arg-Val-Tyr-Ile-Xaa-Pro-Phe (DRVYI[Phe(4-NH2)]PF) [(p-NH2-Phe)6-AII] |  |  |  |  |  |  |  |  |  |  |  | comparable to AT2 antagonists
7 | Asp-Arg-Val-Tyr-Ile-His-Pro (DRVYIHP) [AII(1-7)] |  |  |  |  |  |  |  |  |  | an increase in the respiratory burst capacity was observed |  | 
